Experiment [1] has as its system Dermatophyten, Schimmelpilze, Hefen. Description: Antimycotic in-vitro activity, serial dilution test, overall comparison with prior art. Format: cell-based. Particulars: in-vitro Reihenverdünnungstest. The method, then:
(§1) Versuchsbeschreibung: • Die in-vitro-Prüfungen wurden im Reihenverdünnungstest mit Keiminokula von durchschnittlich 5 x 10^4 Keimen/ml Substrat durchgeführt. Als Nährmedium dienten • a) für Dermatophyten und Schimmelpilze: Sabourand's milieu d'epreuve • b) für Hefen: • Fleischextrakt-Traubenzucker-Bouillon.
(§2) Die Bebrütungstemperatur betrug 20°C, die Bebrütungsdauer lag bei 24 bis 96 Stunden bei Hefen und 96 Stunden bei Dermatophyten und Schimmelpilzen.

The next experiment concerns Candida albicans. Description: Antimycotic in-vitro activity, serial dilution test (MIC). Type of experiment: cell-based. Particulars: Reihenverdünnungstest, 5 x 10^4 Keimen/ml Substrat, Fleischextrakt-Traubenzucker-Bouillon, 20°C, 24 bis 96 Stunden, read-out: MHK-Werte in γ/ml Nährmedium, Candida albicans. The protocol: as §1, §2
The next experiment has as its system Aspergillus fumig. Described as above. Format: cell-based. Particulars: 96 h, Reihenverdünnungstest, 5 x 10^4 Keimen/ml Substrat, Sabourand's milieu d'epreuve, 20°C, 96 Stunden, read-out: MHK-Werte in γ/ml Nährmedium, Aspergillus fumig. The protocol:
as §1, §2

For a further experiment, the system named is Trichophyton mentagr. The experiment is described as above. Type of experiment: cell-based. Particulars: 96 h, Reihenverdünnungstest, 5 x 10^4 Keimen/ml Substrat, Sabourand's milieu d'epreuve, 20°C, 96 Stunden, read-out: MHK-Werte in γ/ml Nährmedium, Trichophyton mentagr. The protocol: as §1, §2
The subject of another experiment is Microsporum canis. The experiment is described as above. Type of experiment: cell-based. Particulars: 96 h, Reihenverdünnungstest, 5 x 10^4 Keimen/ml Substrat, Sabourand's milieu d'epreuve, 20°C, 96 Stunden, read-out: MHK-Werte in γ/ml Nährmedium, Microsporum canis. The method, then: as §1, §2
A further experiment has as its system Torulopsis glabrata. The description is as above. Format: cell-based. Particulars: Nakaseomyces glabratus; Reihenverdünnungstest, 5 x 10^4 Keimen/ml Substrat, Fleischextrakt-Traubenzucker-Bouillon, 20°C, 24 bis 96 Stunden; read-out: MHK-Werte in γ/ml Nährmedium, Torulopsis glabrata. The method, then: as §1, §2
The next experiment concerns Candida-Zellen. Description: Antimycotic in-vivo activity (oral) in mouse candidosis. Details: species or system Mäuse vom Typ SPF-CF1. Particulars: for Wirkung (Überlebende am 6.Tag p.i.): Mäuse SPF-CF1, intravenös infiziert mit 1 - 2 x 10^6 Candida-Zellen, jeweils 50 - 100 mg/kg oral, 1 Stunde vor und 7 Stunden nach Infektion; for Wirkung im Vergleich zu den bekannten Verbindungen (A) und (B): Mäusecandidose, oral. The protocol: Antimykotische in-vivo-Wirksamkeit (oral) bei Mäusecandidose
Mäuse vom Typ SPF-CF1 wurden intravenös mit 1 - 2 x 10^6 logarithmisch wachsenden Candida-Zellen, die in physiologischer Kochsalzlösung suspendiert werden, infiziert. Eine Stunde vor und sieben Stunden nach der Infektion werden die Tiere mit jeweils 50 - 100 mg/kg Körpergewicht der Präparate oral behandelt.
Unbehandelte Tiere starben 3 bis 6 Tage post infektionem. Die Überlebensrate am 6. Tag post infektionem betrug bei unbehandelten Kontrolltieren etwa 5 %.

The subject of experiment [2] is Trichophyton von mentagrophytes. Description: Antimycotic in-vivo activity (local) in experimental guinea pig trichophytosis. Particulars: Meerschweinchen-Trichophytie, lokal. The text has this:
Antimikrobielle in-vivo-Wirksamkeit (lokal) am Modell der experimentellen Meerschweinchen-Trichophytie
Weiße Mäuse der Rasse Pirbright-white wurden auf dem geschorenen, nicht skarifizierten Rücken mit einer Mikro-und Makrokonidien-Suspension von Trichophyton von mentagrophytes infiziert.
Die infizierten Tieren wurden, beginnend mit dem 3. Tag p.i., 1 x täglich mit einer 15%-igen Lösung der erfindungsgemäßen Präparate (in Dimethylsulfoxid : Glycerin = 1 : 4) lokal behandelt.
Bei unbehandelten Tieren entwickelte sich innerhalb 12 Tagen p.i. das typische Bild einer Dermatophytose mit Rötung, Schuppung und Haarausfall bis zum totalen Integument-Defekt an der Infektionsstelle.

Converted amounts (≈) assume the structure as drawn.

`CC(C)(COc1ccc(Cl)cc1)C(O)C(CC1CCCCC1)n1ccnc1` (stereo not drawn) [Beispiel 20]: in experiment [1], the “antimykotische Wirkung im Vergleich zu den bekannten Verbindungen (A) und (B)” value is given as “bessere antimykotische Wirkung”. The MIC with Candida albicans is < 1 µg/mL; in the experiment on Aspergillus fumig., 4 µg/mL (≈ 10.2 µM); in the experiment with Trichophyton mentagr., < 1 µg/mL; in the experiment with Microsporum canis it was 4 µg/mL (≈ 10.2 µM); in the experiment with Torulopsis glabrata, 8 µg/mL (≈ 20.5 µM). The “Wirkung (Überlebende am 6.Tag p.i.)” value with Candida-Zellen is recorded as “++++ (= gute Wirkung = 80 % Überlebende am 6.Tag p.i.)”. In addition, in the experiment with Candida-Zellen, the “Wirkung im Vergleich zu den bekannten Verbindungen (A) und (B)” value is listed as “bessere Wirkung”. Also, the Wirkung result in experiment [2] was “gute bis sehr gute Wirkung”.
Consider `CC(C)(COc1ccc(Cl)cc1)C(O)C(Cc1ccc(Cl)cc1Cl)n1cncn1` (stereo not drawn) [Beispiel 11], for which the “antimykotische Wirkung im Vergleich zu den bekannten Verbindungen (A) und (B)” value in experiment [1] is reported as “bessere antimykotische Wirkung”. The MIC is < 1 µg/mL in the experiment with Candida albicans; 64 µg/mL (≈ 141 µM) in the experiment with Aspergillus fumig.; < 1 µg/mL in the experiment on Trichophyton mentagr.; < 1 µg/mL in the experiment with Microsporum canis; < 1 µg/mL in the experiment on Torulopsis glabrata. In the experiment on Candida-Zellen, the “Wirkung (Überlebende am 6.Tag p.i.)” value is recorded as “++ (= schwache Wirkung = 40 % Überlebende am 6.Tag p.i.)”. For the same molecule, the “Wirkung im Vergleich zu den bekannten Verbindungen (A) und (B)” value in the experiment with Candida-Zellen was “bessere Wirkung”. Also, the Wirkung result in experiment [2] is listed as “gute bis sehr gute Wirkung”.
On to `CCCCC(C(O)C(C)(C)COc1ccc(Br)cc1)n1cncn1` (stereo not drawn) [Beispiel 46], for which, in experiment [1], the “antimykotische Wirkung im Vergleich zu den bekannten Verbindungen (A) und (B)” value is “bessere antimykotische Wirkung”. Besides, the MIC in the experiment on Candida albicans was < 1 µg/mL; in the experiment on Aspergillus fumig. it was 4 µg/mL (≈ 10.1 µM); in the experiment with Trichophyton mentagr., < 1 µg/mL; in the experiment on Microsporum canis it was < 1 µg/mL; in the experiment with Torulopsis glabrata it was < 1 µg/mL. Moreover, the “Wirkung (Überlebende am 6.Tag p.i.)” value with Candida-Zellen is given as “++++ (= gute Wirkung = 80 % Überlebende am 6.Tag p.i.)”. In the experiment with Candida-Zellen, the “Wirkung im Vergleich zu den bekannten Verbindungen (A) und (B)” value is reported as “bessere Wirkung”. Moreover, the Wirkung result in experiment [2] is listed as “gute bis sehr gute Wirkung”.

The values are drawn from patent publication EP0083750A1, “Antimycotic azolyl butanols” (BAYER AG, priority 1981, dated 1983).
